The values that follow come from publication PMC12560828, “Chemical structure drives developmental toxicity of alkyl-substituted naphthalenes in zebrafish” (Environment international, 2025).

Data set [1] concerns zebrafish larvae, 120 hpf. The data set is described as follows: Larval photomotor response (LPR) assay after vial exposure. It counts as in vivo, Danio rerio. The note with it: for fold_change: LPR. On the procedure: (§1) When embryos were 6 hpf they were bleached in groups of 1000 or less to limit bacterial growth in sealed vials. Embryos were placed in a strainer for transfer between solutions in 500 mL containers. […] Pools of eight embryos were placed into 2 mL clear glass screw cap exposure vials with polyvinyl-faced pulp liner (Avantar Radnor, PA, United States) using a glass Pasteur pipette. Excess EM was removed, and 2 mL of fresh EM was immediately added. A total of 10 uL of 200x working stock (in DMSO) was added to each vial, then immediately capped and inverted three times to mix. […] Vials were loaded into a custom 3D printed vial holder for slow end-over-end rotation in a dark 28 °C incubator overnight. […] At 24 hpf, embryos were removed from exposure vials and singulated into 96-well plates loaded with 100 μL chemical-free EM. Each exposure vial group was maintained in plate columns. After loading into 96-well plates, embryos were assessed for 24-hour mortality. For the remainder of the exposure, plates were kept stationary at 28 °C in the dark, until 120 hpf when morphology screening and the larval photo motor response (LPR) assay were conducted, section 2.3.2 and section 2.3.3, respectively.
Each treatment group was replicated over four vials, resulting in 32 embryos per treatment, split over two replicate 96-well plates per chemical. […] Vial groups of plated larvae were tracked to assess the impact of the vial on the results. All reported concentrations were nominal water concentrations and are included in SI-T4.
The LPR assay was conducted at 120 hpf. […] Larval movement was tracked throughout minutes 6–24. Animals dead or morphologically abnormal were excluded from the analysis, and if more than 30 % of the wells in a treatment group were excluded, the treatment was removed.
Movement values were binned into 6s intervals, log normalized and used to calculate area under the curve (AUC). AUC values from the first cycle after calibration were used to calculate the LEL for each period (light and dark).

Data set [2] relates to early life stage zebrafish (Danio rerio) embryos. The data set can be described thus: Developmental toxicity morphology screen, sealed rotating vial exposure. More on the design: bmd, MO24 / bmd, MORT / bmd, ANY_ / bmd, AXIS / bmd, CRAN / bmd, EDEM / bmd, LTRK / bmd, MUSC / bmdL, ANY_ / bmdU, ANY_ / bmdL, AXIS / bmdU, AXIS / bmdL, CRAN / bmdU, CRAN / bmdL, EDEM / bmdU, EDEM / bmdL, LTRK / bmdU, LTRK / bmdL, MO24 / bmdU, MO24 / bmdL, MORT / bmdU, MORT: unit not given here. Format: in vivo. On the procedure: as §1
Each treatment group was replicated over four vials, resulting in 32 embryos per treatment, split over two replicate 96-well plates per chemical. […] All reported concentrations were nominal water concentrations and are included in SI-T4.
At 24 hpf embryos were assessed for mortality (MO24). At 120 hpf embryos were assessed for abnormality in […] morphological endpoints: mortality (MORT), edemas (EDEM), bent axis (AXIS), touch response (TCHR), craniofacial (CRAN), muscular/cardiovascular (MUSC), lower trunk (LRTK), brain (BRAN), skin (SKIN), and notochord malformations (NC). Morphological assessments were made by a team of three to four individuals. The team was blinded to the identity, plate layout, and concentrations of the chemicals, thereby minimizing bias in morphological screening assessment. To ensure the assessments were consistent, concentration–response reproducibility of a parathion ethyl quality control plate was performed along with each experimental exposure set up. Details of all measured endpoints can be found at Developmental toxicity zebrafish phenotype atlas. […] Each endpoint was scored as a binary presence/absence and scores were compiled into an “Any effect” endpoint, the presence of abnormality in any individual endpoint.
The Any effect percent was used to calculate the BMC50, 50 % change relative to the background for each endpoint and chemical. All values were reported as the nominal exposure concentration.

In data set [3] the test system is zebrafish embryos, gene expression at 48 hpf. The data set can be described thus: Targeted transcriptomics (TempO-Seq S1500+ zebrafish panel), differential expression. Format: in vivo, Danio rerio. The settings on record: 20 μM, result in words. The method, then:
Targeted transcriptomics were performed using the Biospyder™ TempO-Seq™ 96-well plate platform. This platform used detector oligos for a gene set of 3112 probes selected through data driven approaches and expert curation ([Balik-Meisner et al., 2019]). The targeted transcriptomics approach was selected to maximize the number of chemicals that could be included in the analysis while managing cost and data analysis requirements. Targeted transcriptomics were limited to 96 samples, three chemicals without morphological effects were excluded from the analysis to ensure n = 4 per chemical and n = 6 controls, excluded chemicals are indicated in SI-T3.
A single exposure concentration of 20 μM was chosen as the maximum possible concentration to elicit a biological response that also ensured enough viable animals for RNA collection for every chemical. The same concentration per chemical was chosen as opposed to a phenotypically anchored concentration due to variability in 48 hpf survival across chemicals at the same 120 hpf percent effect and to allow for a direct comparison of chemical potency and transcriptomic response. 48 hpf was chosen to ensure the measurement of transcriptomic responses prior to the emergence of observable phenotypic effects. This timepoint has been used extensively and enhanced the ability to compare our results across datasets. Exposure was conducted over two days, chemicals were split into day groups by numerical order of randomly generated internal labels, 11 chemicals and control each day, n = 48 embryos across six vials per treatment. Exposure was conducted as previously described in section 2.3. At 48 hpf embryos were collected for RNA extraction. Embryos from two exposure vials were kept for morphological effect assessments which were as expected based on screening results. From the remaining wells, six phenotypically normal embryos were collected and pooled in their vial groups into 1.5 mL Eppendorf tubes, placed on ice (~30 sec), excess medium was removed, placed back on ice (~30 sec), and 200 μL RNA shield was added. […] of n = 6 pooled embryos were collected from each treatment.
RNA was extracted from exposure groups on day one and day two. 100 μL of lysis buffer was added to each tube containing pooled embryo samples and 200 μL of RNA shield, the full contents of the tube were then transferred to the homogenization plate (2 mL deep 96-well plate pre-filled with 400 μL 1 mm zirconium beads and 500 μL of lysis buffer). The plate was homogenized for 1.5 min using the Mini-BeadBeater 96 (BioSpec Products, Bartlesville, OK, United States) and centrifuged for five min at 3000 rcf. 550 μL of the supernatant was distributed over two plates, each pre-filled with 275 μL of ethanol. RNA extraction was performed using the KingFisher Apex System (ThermoFisher Scientific, Waltham, MA, United States) and Quick-RNA Magbead kit (Zymo Research Corporation, Irvine, CA, Untied States). Briefly, this automated process uses Mag beads to collect RNA from the sample, after a series of washes and treatment with DNase the RNA is eluted in 50 μL of ultra-pure water. RNA quality was assessed using the 4150 TapeStation System (Agilent, Santa Clara, CA, United States). All samples used had RNA integrity number (RIN) scores >9.8. RNA concentration was determined using Quant-iT RNA Reagent and assay kit and Varioskan ALF multi-mode plate reader (ThermoFisher Scientific, Waltham, MA, United States) in duplicate, samples with high variability (coefficient of variance (CV) > 10) between reads were repeated in triplicate. The average of the quantification reads was used for RNA concentration normalization. […] All 94 samples were normalized using ultra-pure water to the lowest concentration sample − 14.9 ng/μL. […]

For `Cc1ccc(C)c2c(C)cccc12` [1,4,5-trimethylnaphthalene], the LPR behavioral effect result in data set [1] (120 hpf, light/dark periods, result in words) is “hyperactivity during the light period”. In addition, the fold_change in data set [1] (period dark, round 1, conc 3.125) is recorded as 0.1634; in data set [1] (period dark, round 1, conc 6.25), 0.08749; in data set [1] (period dark, round 1, conc 12.5) it was -0.2344; in data set [1] (period dark, round 2, conc 12.8), 0.03668; in data set [1] (period dark, round 2, conc 16), -0.1932; in data set [1] (period dark, round 2, conc 20), 0.4872. The fold_change in data set [1] (period light, round 1, conc 3.125) is recorded as -0.0344; in data set [1] (period light, round 1, conc 6.25), 0.04487; in data set [1] (period light, round 1, conc 12.5), 0.5316; in data set [1] (period light, round 2, conc 12.8), 0.4664; in data set [1] (period light, round 2, conc 16), -0.1141; in data set [1] (period light, round 2, conc 20), 1.443. Further, the “BMC50 MO24 (mortality at 24 hpf)” value in data set [2] (Fig. 2, nominal concentration) stood at 27.7 µM. Also, the “BMC50 MORT (mortality at 120 hpf)” value in data set [2] (Fig. 2, nominal concentration) is 23.5 µM. Also, the “BMC50 Any effect” value in data set [2] (Fig. 2 heatmap, nominal concentration, exposure 6-24 hpf in vials, summary of all endpoints) is 19.7 µM. Also, the “any effect BMD50” value in data set [2] (SI-T5) was 19.74 µM. Besides, the “bmd, MO24” value in data set [2] (benchmark dose, endpoint MO24) worked out at 27.7283. The “bmd, MORT” value in data set [2] (benchmark dose, endpoint MORT) came to 23.5002. In data set [2] (benchmark dose, morphology endpoint ANY_ (any effect)), the “bmd, ANY_” value is 19.7402. In addition, the nt5dc2 expression entry in data set [3] is listed as “decreased expression”.
